From publication PMC6691788, “Design and synthesis of phthalazine-based compounds as potent anticancer agents with potential antiangiogenic activity via VEGFR-2 inhibition” (Journal of Enzyme Inhibition and Medicinal Chemistry, 2019)

How the values were obtained:
HT29 = assay: NCI 60 cell panel SRB screen; type: cell-based; conditions: Homo sapiens, HT-29; HT29, single dose 10 μM; read-out: percent cell growth promotion
UACC-257 = assay: NCI 60 cell panel SRB screen; type: cell-based; conditions: Homo sapiens, UACC-257, read-out: percent cell growth promotion
HOP-62 = assay: NCI 60 cell panel SRB screen; type: cell-based; conditions: Homo sapiens; HOP-62, single dose 10 μM; read-out: percent cell growth promotion
MDA-MB 231/ATCC = assay: NCI 60 cell panel SRB screen; type: cell-based; conditions: Homo sapiens, MDA-MB-231, read-out: percent cell growth promotion
NCI-H322M = assay: NCI 60 cell panel SRB screen; type: cell-based; conditions: Homo sapiens, single dose 10 μM, read-out: percent cell growth promotion
HS 578T = assay: NCI 60 cell panel SRB screen; type: cell-based; conditions: Homo sapiens, Hs-578T, read-out: percent cell growth promotion
SK-MEL-28 = assay: NCI 60 cell panel SRB screen; type: cell-based; conditions: Homo sapiens, SK-MEL-28, read-out: percent cell growth promotion
MOLT-4 = assay: NCI 60 cell panel SRB screen; type: cell-based; conditions: Homo sapiens; MOLT-4, single dose 10 μM; read-out: percent cell growth promotion
OVCAR-4 = assay: NCI 60 cell panel SRB screen; type: cell-based; conditions: Homo sapiens; OVCAR-4, single dose 10 μM; read-out: percent cell growth promotion
SF-268 = assay: NCI 60 cell panel SRB screen; type: cell-based; conditions: Homo sapiens; SF-268, single dose 10 μM; read-out: percent cell growth promotion
NCI/ADR-RES = assay: NCI 60 cell panel SRB screen; type: cell-based; conditions: Homo sapiens, single dose 10 μM, read-out: percent cell growth promotion
OVCAR-8 = assay: NCI 60 cell panel SRB screen; type: cell-based; conditions: Homo sapiens; OVCAR-8, single dose 10 μM; read-out: percent cell growth promotion
SN12C = assay: NCI 60 cell panel SRB screen; type: cell-based; conditions: Homo sapiens, single dose 10 μM, read-out: percent cell growth promotion
CAKI-1 = assay: NCI 60 cell panel SRB screen; type: cell-based, human; conditions: Homo sapiens; CAKI-1, single dose 10 μM; read-out: percent cell growth promotion
HOP-92 = assay: NCI 60 cell panel SRB screen; type: cell-based; conditions: Homo sapiens; HOP-92, single dose 10 μM; read-out: percent cell growth promotion
SW-620 = assay: NCI 60 cell panel SRB screen; type: cell-based; conditions: Homo sapiens; SW-620, single dose 10 μM; read-out: percent cell growth promotion
UO-31 = assay: NCI 60 cell panel SRB screen; type: cell-based; conditions: Homo sapiens; UO-31, single dose 10 μM; read-out: percent cell growth promotion
A498 = assay: NCI 60 cell panel SRB screen; type: cell-based; conditions: Homo sapiens; A498, single dose 10 μM; read-out: percent cell growth promotion
VEGFR-2 tyrosine kinase = molecular target: T1, VEGFR-2 tyrosine kinase (Homo sapiens, UniProt P35968); assay: In vitro VEGFR-2 tyrosine kinase assay (BPS Bioscience); type: biochemical; conditions: read-out: VEGFR-2 % inhibition; 10 μM concentration
T1 construct: purchased BPS Bioscience 40301
Description: The VEGFR tyrosine kinase assays were performed at BPS Bioscience (www.bpsbioscience.com). All the synthesised compounds representing the six series were evaluated for their ability to inhibit VEGFR-2 tyrosine kinase at single dose of 10 µM.
The VEGFR tyrosine kinase activity at single dose concentration of 10 μM was carried out by BPS Bioscience (www.bpsbioscience.com). VEGFR (BPS#40301) served as the enzyme source and Poly (Glu, Tyr) sodium salt, (4:1, Glu:Tyr) (Sigma#P7244) served as the standardized substrate & Kinase-Glo Plus Luminescence kinase assay kit (Promega#V3772). The IC50 determination was carried out where quality control testing is routinely performed on each of the targets to insure compliance to acceptable standards. ^33P-ATP was purchased from Perkin Elmer and ADP-Glo^TM was purchased from Promega. All other materials were of standard laboratory grade.
The VEGFR tyrosine kinase activity was performed using Kinase-Glo Plus luminescence kinase assay kit (Promega). It measures kinase activity by quantitating the amount of ATP remaining in solution following a kinase reaction. The luminescent signal from the assay is correlated with the amount of ATP present and is inversely correlated with the amount of kinase activity. The compounds were diluted to 100 μM in 10% DMSO and […] of the dilution was added to a […] reaction so that the final concentration of DMSO is 1% in all of reactions. All of the enzymatic reactions were conducted at 30 °C for 40 min. The 50 μl reaction mixture contains […], pH 7.4, […], 0.1 mg/ml BSA, 0.2 mg/ml Poly (Glu, Tyr) substrate, 10 μM ATP and VEGFR. After the enzymatic reaction, […] of Kinase-GloPlus Luminescence kinase assay solution (Promega) was added to each reaction and incubate the plate for 5 min at room temperature. Luminescence signal was measured using a BioTek Synergy 2 microplate reader. The protein kinase assays used to determine IC50 value were performed using ADP-GloTM assay kit from Promega which measures the generation of ADP by the protein kinase. Generation of ADP by the protein kinase reaction leads to an increase in luminescence signal in the presence of ADP-GloTM assay kit. The assay was started by incubating the reaction mixture in a 96-well plate at 30 °C for 30 min. After the 30 min incubation period, the assay was terminated by the addition of […] of ADP-GloTM Reagent (Promega). The 96 well plate was shaken and then incubated for 40 min at ambient temperature. […] of Kinase detection reagent was added, the 96-well reaction plate was then read using the ADP-Glo Luminescences Protocol on a GloMax plate reader (Promega: Catalog #E7031). Blank control was set up that included all the assay components except the addition of appropriate substrate (replace with equal volume of kinase assay buffer). The corrected activity for each protein kinase target was determined by removing the blank control value.
VEGFR activity assays were performed in duplicate at each concentration. The luminescence data were analyzed using the computer software, Graphpad Prism. The difference between luminescence intensities in the absence of VEGFR (Lut) and in the presence of VEGFR (Luc) was defined as 100% activity (Lut - Luc). […] IC50 determination for inhibitor against VEGFR was estimated by generating a graph of log inhibitor vs normalized response with variable using the Prism software.

A549/ATCC = assay: NCI 60 cell panel SRB screen; type: cell-based; conditions: Homo sapiens, single dose 10 μM, read-out: percent cell growth promotion

T1 sequence (P35968 20-1356): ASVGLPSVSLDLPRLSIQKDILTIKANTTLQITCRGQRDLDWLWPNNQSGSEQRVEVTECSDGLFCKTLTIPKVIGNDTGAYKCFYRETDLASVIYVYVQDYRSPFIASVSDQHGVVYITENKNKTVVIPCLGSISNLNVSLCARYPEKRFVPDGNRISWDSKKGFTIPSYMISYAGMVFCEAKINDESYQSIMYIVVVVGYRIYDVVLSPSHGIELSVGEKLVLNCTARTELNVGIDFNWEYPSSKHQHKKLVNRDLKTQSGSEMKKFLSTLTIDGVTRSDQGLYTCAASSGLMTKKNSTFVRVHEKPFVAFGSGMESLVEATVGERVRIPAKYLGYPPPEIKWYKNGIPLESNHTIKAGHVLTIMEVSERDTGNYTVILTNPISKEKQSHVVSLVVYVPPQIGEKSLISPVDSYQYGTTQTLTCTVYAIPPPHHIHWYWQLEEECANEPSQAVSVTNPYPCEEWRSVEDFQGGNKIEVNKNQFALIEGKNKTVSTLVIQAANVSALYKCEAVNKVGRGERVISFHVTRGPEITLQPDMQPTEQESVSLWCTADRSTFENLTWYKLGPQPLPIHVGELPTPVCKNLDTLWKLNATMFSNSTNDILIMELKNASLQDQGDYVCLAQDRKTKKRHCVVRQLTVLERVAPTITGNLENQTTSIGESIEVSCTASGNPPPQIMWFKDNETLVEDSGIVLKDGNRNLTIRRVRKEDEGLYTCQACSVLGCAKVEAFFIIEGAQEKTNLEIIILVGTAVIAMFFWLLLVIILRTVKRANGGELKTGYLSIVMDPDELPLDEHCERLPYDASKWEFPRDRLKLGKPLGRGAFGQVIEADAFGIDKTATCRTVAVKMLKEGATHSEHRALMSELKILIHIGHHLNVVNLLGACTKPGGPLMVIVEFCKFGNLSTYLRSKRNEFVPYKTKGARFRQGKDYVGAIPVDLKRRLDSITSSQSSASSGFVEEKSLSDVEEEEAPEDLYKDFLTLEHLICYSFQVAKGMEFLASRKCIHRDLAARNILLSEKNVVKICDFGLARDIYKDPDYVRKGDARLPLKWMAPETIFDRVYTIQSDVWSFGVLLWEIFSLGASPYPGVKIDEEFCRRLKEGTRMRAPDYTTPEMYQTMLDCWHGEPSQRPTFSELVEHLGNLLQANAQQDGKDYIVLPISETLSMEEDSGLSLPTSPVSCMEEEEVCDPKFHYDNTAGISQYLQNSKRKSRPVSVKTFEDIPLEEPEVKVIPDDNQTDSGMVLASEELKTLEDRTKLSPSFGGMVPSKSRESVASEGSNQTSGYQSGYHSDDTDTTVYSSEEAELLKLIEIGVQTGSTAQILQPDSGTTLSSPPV

| Compound | activity at 10 µM (HT29) [%] | activity at 10 µM (UACC-257) [%] | activity at 10 µM (HOP-62) [%] | activity at 10 µM (MDA-MB 231/ATCC) [%] | activity at 10 µM (NCI-H322M) [%] | activity at 10 µM (HS 578T) [%] | activity at 10 µM (SK-MEL-28) [%] | activity at 10 µM (MOLT-4) [%] | activity at 10 µM (OVCAR-4) [%] | activity at 10 µM (SF-268) [%] | activity at 10 µM (NCI/ADR-RES) [%] | activity at 10 µM (OVCAR-8) [%] | activity at 10 µM (SN12C) [%] | activity at 10 µM (CAKI-1) [%] | activity at 10 µM (HOP-92) [%] | activity at 10 µM (SW-620) [%] | activity at 10 µM (UO-31) [%] | activity at 10 µM (A498) [%] | inhibition at 10 µM (VEGFR-2 tyrosine kinase) [%] | activity at 10 µM (A549/ATCC) [%] |
| --- | --- | --- | --- | --- | --- | --- | --- | --- | --- | --- | --- | --- | --- | --- | --- | --- | --- | --- | --- | --- |
| O=C(Nc1ccc(Nc2nncc3ccccc23)cc1)c1ccc(Cl)cc1 [Compound 5b, 4-Chloro-N-(4-(phthalazin-1-ylamino)phenyl)benzamide] | 104 | 93 | 91.8 | 93.3 | 109 | 105 | 114 | 97.3 | 106 | 98 | 103 | 96.2 | 100 | 94.6 | 97.5 | 102 | 78.6 | 98.7 | 8 | 101 |
| Cc1nnc(Nc2ccc(NC(=O)c3ccc(Cl)cc3)cc2)c2ccccc12 [Compound 5d, 4-Chloro-N-(4–(4-methylphthalazin-1-ylamino)phenyl)benzamide] | 94.3 | 97.4 | 88.8 | 73 | 112 | 89.7 | 106 | 83.5 | 105 | 90 | 96 | 93.1 | 91 | 86.3 | 55.4 | 92.7 | 57.8 | 88.9 | 15 | 97.9 |
| Cc1nnc(N2CCN(c3ccccn3)CC2)c2ccccc12 [Compound 8i, 1-Methyl-4–(4-(pyridin-2-yl)piperazin-1-yl)phthalazine] | 91.2 | 98.5 | 99.8 | 117 | 107 | 109 | 101 | 96.1 | 100 | 106 | 105 | 98.9 | 104 | 94.8 | 119 | 113 | 102 | – | 6 | 92.3 |
| O=C(Nc1ccc(Cl)cc1)Nc1ccc(Oc2nnc(Cl)c3ccccc23)cc1 [Compound 13b, 1–(4-Chlorophenyl)-3–(4-(4-chlorophthalazin-1-yloxy)phenyl)urea] | 95.8 | 89.9 | 93.3 | 67.5 | 99.1 | 97.9 | 106 | – | 72.1 | 85.8 | 83.6 | 86 | 91.4 | 99.1 | 104 | 106 | 53.9 | 103 | 38 | 78.2 |
